Data as given in the NIST ThermoML archive (doi:10.1016/j.jct.2013.11.026).
Numbers after ± are expanded uncertainties.

Conditions: 298.15 K, 101.8 kPa, Liquid; for viscosity: Falling or rolling sphere viscometry; for mass density: Vibrating tube method

Row | Compound | viscosity [mPa·s] | mass density [kg/m3]
1 | CC1=CCC(C(C)C)=CC1 [1-methyl-4-(1-methylethyl)-1,4-cyclohexadiene] | 1.144 ± 0.031 | 844.9 ± 1.9
2 | C=CC(C)(O)CCC=C(C)C (stereo unspecified) [3,7-dimethyl-1,6-octadien-3-ol] | 4.349 ± 0.092 | 857.28 ± 1
3 | CC(C)=CCCC(C)=CC=O [3,7-dimethyl-2,6-octadienal (cis+trans)] | 2.019 ± 0.043 | 883.42 ± 1

Continued, values first:

Row | viscosity [mPa·s] | mass density [kg/m3] | Compound
4 | 2.456 ± 0.052 | 958.79 ± 1 | C=C(C)[C@@H]1CC=C(C)C(=O)C1 [l-carvone]
5 | 1.616 ± 0.034 | 866.93 ± 1 | C=C1CC[C@H]2C[C@@H]1C2(C)C [(1S,5S)-6,6-dimethyl-2-methylenebicyclo[3.1.1]heptane]
6 | 1.125 ± 0.024 | 785.07 ± 1 | CCO [ethanol]
7 | 2.291 ± 0.049 | 898.64 ± 1 | C=CC(C)(CCC=C(C)C)OC(C)=O (stereo unspecified) [linalool acetate]
8 | 0.8599 ± 0.022 | 838.59 ± 1.6 | C=C(C)[C@H]1CC=C(C)CC1 [(R)-1-methyl-4-(1-methylethenyl)cyclohexene]
